From PubChem BioAssay (NCI) come the findings set out here.

Molecules are shown by their SMILES. Values joined by “and” are separate entries in the source; they are usually repeats but may differ in a detail not shown here. Identical values can stand only once.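 Assay format: 96-well plates, 48-hour exposure. GI50: concentration for 50% inhibition of growth. At the TGI there is no net growth.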

The first test concerns A498 renal. Nature of the test: NCI tumour cell line growth inhibition, 48 h.
Turning to `COc1cc(CNc2nc3ccc(C(F)(F)F)cc3nc2-c2ccccc2)cc(OC)c1OC`, the TGI is above 100 µM.

For `CC1=NN(C(=O)c2ccncc2)C(=O)C1N=Nc1ccc(F)cc1` (stereo not drawn), the TGI is above 100 µM.

With `O=S1CSSC1`, the TGI was above 100 µM.

With `C=CCNC(=O)N(CCC)CCCC(NC(C)=O)C(=O)NCc1ccccc1` (stereo not drawn), the TGI is above 100 µM.

Consider `CN1c2ccccc2SC2C(c3ccccc3)=NOC21` (stereo not drawn), for which the TGI is above 100 µM.

`COc1c(O)c(OC)c2oc(-c3ccc(O)cc3)c(OC)c(=O)c2c1O` registered a TGI above 100 µM.

`COC(=O)C1C(=O)N(CCc2c[nH]c3ccccc23)C[C@@H]2CCC(=O)C[C@H]12` (stereo partly drawn) displayed a TGI above 100 µM.

Turning to `C[C@]12C/C(=C/O)C(=O)C(O)=C1CC[C@@H]1C2CC[C@@]2(C)C1CC[C@@H]2O` (stereo partly drawn), the TGI was determined as 65.1 µM.

For the compound `O=C1c2ccccc2-c2c1c1c(NCCCO)nc3ccccc3c1n2Cc1ccccc1`, the GI50 was 21.6 µM and the TGI amounted to 48.6 µM.

In the case of `O=C(NCCN1CCNCC1)c1ccc(Nc2nc3ccccc3c3occc23)cc1`, the GI50 was 16.2 µM and the TGI was 36.3 µM.

Another test deals with SNB-75 CNS. Nature of the test: NCI tumour cell line growth inhibition, 48 h.
Consider `Cc1c2ccncc2c(C)c2c1[nH]c1ccc(O)c(OCC(F)(F)F)c12`, for which the TGI came out at 21.1 µM.

`O=C1[C@H]2ON(c3ccccc3)C(c3ccco3)[C@H]2C(=O)N1c1ccc(Cc2ccc(N3C(=O)[C@@H]4ON(c5ccccc5)C(c5ccco5)[C@@H]4C3=O)cc2)cc1` (stereo partly drawn) showed a TGI above 100 µM.

Take `O=C(Cl)C1=C(c2ccccc2)C1c1ccccc1` (stereo not drawn): the TGI is above 100 µM.

In the case of `Cc1cccc(C)c1N1C(=O)C(=O)C(c2nc3ccccc3s2)/C(=N/NC(=O)NN)C1=O` (stereo not drawn), the TGI was above 100 µM.

Take `c1cnn2ncc(-c3ccnc(Nc4ccc5c(c4)OCCO5)n3)c2c1`: the GI50 was 0.0671 µM and the TGI came out at 0.173 µM.

For the compound `Cc1ccc(-n2nc(C(C)(C)C)cc2NC(=O)NCc2cc(F)ccc2Oc2ccc3c(cnn3CCO)c2)cc1`, the GI50 is > 10 µM and 14.8 µM; the TGI was above 100 µM.

The compound `COc1ccc2[nH]c(-c3ccc(O)cc3)cc(=O)c2c1` gave a TGI of 1.7 µM.

For `COc1cccc2c(=O)c3c(sc12)c(NCCCNCCO)nc1ccccc13`, the GI50 was 0.964 µM and the TGI is 7.44 µM.

Turning to `O=C1c2cccc3cccc(c23)C(=O)N1O`, the TGI was 80.2 µM.

Turning to `COc1ccc(Nc2nccc(N3CCN(c4c5ccc(Cl)cc5nc5ccc(OC)cc45)CC3)n2)cc1`, the GI50 is 5.61 µM and the TGI is 46.7 µM.

Regarding `CC(=Nc1ccc(S(N)(=O)=O)cc1)c1c(O)[nH]c2ccccc12`, the GI50 was above 25 µM and the TGI was above 25 µM.

In the case of `COc1cc(CNc2nc3ccc(C(F)(F)F)cc3nc2-c2ccccc2)cc(OC)c1OC`, the TGI was determined as 61.7 µM.

As to `CC1=NN(C(=O)c2ccncc2)C(=O)C1N=Nc1ccc(F)cc1` (stereo not drawn), the TGI worked out at 66.8 µM.

For the compound `O=S1CSSC1`, the TGI was found to be 92.6 µM.

Compound `C=CCNC(=O)N(CCC)CCCC(NC(C)=O)C(=O)NCc1ccccc1` (stereo not drawn) displayed a TGI above 100 µM.

For the compound `CN1c2ccccc2SC2C(c3ccccc3)=NOC21` (stereo not drawn), the TGI was found to be 56.6 µM.

On to `COC(=O)C1C(=O)N(CCc2c[nH]c3ccccc23)C[C@@H]2CCC(=O)C[C@H]12` (stereo partly drawn), for which the TGI is above 100 µM.

In turn, `C[C@]12C/C(=C/O)C(=O)C(O)=C1CC[C@@H]1C2CC[C@@]2(C)C1CC[C@@H]2O` (stereo partly drawn) gave a TGI of 34.9 µM.

With `O=C1c2ccccc2-c2c1c1c(NCCCO)nc3ccccc3c1n2Cc1ccccc1`, the GI50 is 20.7 µM and the TGI was determined as 39.8 µM.

In the case of `O=C(NCCN1CCNCC1)c1ccc(Nc2nc3ccccc3c3occc23)cc1`, the GI50 was 7.06 µM and the TGI turned out to be 25.9 µM.

For another test, the system named is IGROV1 ovarian. Description: NCI tumour cell line growth inhibition, 48 h.
Consider `Cc1c2ccncc2c(C)c2c1[nH]c1ccc(O)c(OCC(F)(F)F)c12`, for which the TGI turned out to be 18.1 µM.

`O=C1[C@H]2ON(c3ccccc3)C(c3ccco3)[C@H]2C(=O)N1c1ccc(Cc2ccc(N3C(=O)[C@@H]4ON(c5ccccc5)C(c5ccco5)[C@@H]4C3=O)cc2)cc1` (stereo partly drawn) showed a TGI above 100 µM.

As for `O=C(Cl)C1=C(c2ccccc2)C1c1ccccc1` (stereo not drawn), the TGI is above 100 µM.

`Cc1cccc(C)c1N1C(=O)C(=O)C(c2nc3ccccc3s2)/C(=N/NC(=O)NN)C1=O` (stereo not drawn) registered a TGI above 100 µM.

`c1cnn2ncc(-c3ccnc(Nc4ccc5c(c4)OCCO5)n3)c2c1`: the GI50 was 0.0815 µM and the TGI was above 25 µM.

Turning to `Cc1ccc(-n2nc(C(C)(C)C)cc2NC(=O)NCc2cc(F)ccc2Oc2ccc3c(cnn3CCO)c2)cc1`, the GI50 was 2.59 µM and 4.69 µM; the TGI is above 100 µM.

Compound `COc1ccc2[nH]c(-c3ccc(O)cc3)cc(=O)c2c1` had a TGI above 62.8 µM.

Consider `Cc1cc(C)n(C2=NS(=O)(=O)c3ccccc3N2C)n1`, for which the TGI is above 100 µM.

With `COc1cccc2c(=O)c3c(sc12)c(NCCCNCCO)nc1ccccc13`, the GI50 is 1.16 µM and the TGI stood at 2.58 µM.

On to `O=C1c2cccc3cccc(c23)C(=O)N1O`, for which the TGI is above 100 µM.

Consider `COc1ccc(Nc2nccc(N3CCN(c4c5ccc(Cl)cc5nc5ccc(OC)cc45)CC3)n2)cc1`, for which the GI50 was 42.4 µM and the TGI was above 100 µM.

On to `CC(=Nc1ccc(S(N)(=O)=O)cc1)c1c(O)[nH]c2ccccc12`, for which the GI50 is above 25 µM and the TGI is above 25 µM.

The compound `COc1cc(CNc2nc3ccc(C(F)(F)F)cc3nc2-c2ccccc2)cc(OC)c1OC` had a TGI above 100 µM.

Compound `CC1=NN(C(=O)c2ccncc2)C(=O)C1N=Nc1ccc(F)cc1` (stereo not drawn) came in with a TGI above 100 µM.

`O=S1CSSC1` came in with a TGI of 54.9 µM.

For `C=CCNC(=O)N(CCC)CCCC(NC(C)=O)C(=O)NCc1ccccc1` (stereo not drawn), the TGI is above 100 µM.

Compound `CN1c2ccccc2SC2C(c3ccccc3)=NOC21` (stereo not drawn) had a TGI above 100 µM.

Compound `COc1c(O)c(OC)c2oc(-c3ccc(O)cc3)c(OC)c(=O)c2c1O` showed a TGI of 51.4 µM.

The compound `COC(=O)C1C(=O)N(CCc2c[nH]c3ccccc23)C[C@@H]2CCC(=O)C[C@H]12` (stereo partly drawn) had a TGI above 100 µM.

As for `C[C@]12C/C(=C/O)C(=O)C(O)=C1CC[C@@H]1C2CC[C@@]2(C)C1CC[C@@H]2O` (stereo partly drawn), the TGI was found to be 46 µM.

For the compound `O=C1c2ccccc2-c2c1c1c(NCCCO)nc3ccccc3c1n2Cc1ccccc1`, the GI50 was 48.6 µM and the TGI was above 100 µM.

Turning to `O=C(NCCN1CCNCC1)c1ccc(Nc2nc3ccccc3c3occc23)cc1`, the GI50 is 1.97 µM and the TGI worked out at 15.1 µM.
